In article PMC8395690, “Entropy–Entropy Compensation between the Protein, Ligand, and Solvent Degrees of Freedom Fine-Tunes Affinity in Ligand Binding to Galectin-3C” (JACS Au, 2021):
Read-outs that look alike come from different tables or passages of the source.

Target: T1, galectin-3C (carbohydrate recognition domain of galectin-3) (Homo sapiens, UniProt P17931)
T1 construct: gene LGALS3; carbohydrate recognition domain of galectin-3 (residues 113–250)
Test: ITC; X-ray crystal structure; NMR titration
Type: binding

T1 sequence (P17931 113-250): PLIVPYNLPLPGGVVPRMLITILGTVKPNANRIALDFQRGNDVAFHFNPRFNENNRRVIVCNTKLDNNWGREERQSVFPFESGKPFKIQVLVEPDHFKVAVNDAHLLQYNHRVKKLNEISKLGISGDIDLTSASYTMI

Compound	Kd (read-out: Kd ITC (10^-6 M) ^a)	Kd
OC[C@H]1O[C@@H](S[C@@H]2O[C@H](CO)[C@@H](O)[C@H](O)[C@H]2O)[C@H](O)[C@@H](n2cc(-c3cccc(F)c3)nn2)[C@H]1O [M]	2000 nM	–
OC[C@H]1O[C@@H](S[C@@H]2O[C@H](CO)[C@@H](O)[C@H](O)[C@H]2O)[C@H](O)[C@@H](n2cc(-c3ccc(F)cc3)nn2)[C@H]1O [P]	2460 nM	–
OC[C@H]1O[C@@H](S[C@@H]2O[C@H](CO)[C@@H](O)[C@H](O)[C@H]2O)[C@H](O)[C@@H](n2cc(-c3ccccc3F)nn2)[C@H]1O [O]	–	7210 nM
